Data taken from article PMC10380446, “The Electronic Effects of 3-Methoxycarbonylcoumarin Substituents on Spectral, Antioxidant, and Protein Binding Properties” (International Journal of Molecular Sciences, 2023).

Molecular target: T1, bovine serum albumin (BSA) (Bos taurus, UniProt P02769)
T1 construct: gene ALB; mature secreted protein
Experiment: tryptophan fluorescence quenching, excitation […] nm
Format: binding
Details: double-log, natural logarithm of K, PBS, 300 K

T1 sequence (P02769 25-607): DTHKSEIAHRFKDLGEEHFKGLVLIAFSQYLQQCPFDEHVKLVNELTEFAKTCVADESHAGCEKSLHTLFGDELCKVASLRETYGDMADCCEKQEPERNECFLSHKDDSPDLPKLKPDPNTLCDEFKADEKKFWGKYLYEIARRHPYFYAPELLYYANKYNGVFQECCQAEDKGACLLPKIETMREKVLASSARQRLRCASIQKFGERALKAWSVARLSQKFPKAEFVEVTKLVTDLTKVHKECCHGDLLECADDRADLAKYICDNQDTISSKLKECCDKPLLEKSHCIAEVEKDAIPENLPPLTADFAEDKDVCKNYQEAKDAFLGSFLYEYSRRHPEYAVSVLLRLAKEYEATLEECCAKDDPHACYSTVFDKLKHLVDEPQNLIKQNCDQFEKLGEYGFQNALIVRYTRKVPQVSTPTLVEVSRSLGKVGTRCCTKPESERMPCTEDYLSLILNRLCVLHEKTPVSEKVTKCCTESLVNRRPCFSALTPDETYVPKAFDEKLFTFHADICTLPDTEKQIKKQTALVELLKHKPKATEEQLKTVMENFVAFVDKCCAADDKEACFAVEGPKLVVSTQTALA

| SMILES | lnK (covalent (suspected by the authors from new 480 nm peak), unreliable) | lnK |
| --- | --- | --- |
| COC(=O)c1cc2cc(OC)ccc2oc1=O [6-OMe] | 12.62 ln (M^-1 not printed) | – |
| COC(=O)c1cc2cc([N+](=O)[O-])ccc2oc1=O [6-NO2] | – | 9.03 ln (M^-1 not printed) |
| COC(=O)c1cc2cc(Br)ccc2oc1=O [6-Br] | – | 9.78 ln (M^-1 not printed) |
